The text below walks through data of patent US20250049709A1, “ZIPRASIDONE FORMULATIONS” (BELOTECA, INC., priority 2021, published 2025).

In brackets after ≈: the same amount, converted by molar mass. Structures can show the parent of a compound that is named as a salt. Where two headings read alike, the source gives them in different places.

The conditions of series [1]: cited from earlier work.
Series [2] can be described thus: pH value of 1% w/v aqueous ziprasidone suspension. As to conditions: 1% w/v aqueous ziprasidone suspension at 25° C. It is filed as physicochemical. Here is the method:
This pH value corresponds to a pH value of ziprasidone in water determined on a 1% w/v aqueous ziprasidone suspension at 25° C.

For the molecule `O=C1Cc2cc(CCN3CCN(c4nsc5ccccc45)CC3)c(Cl)cc2N1` [ziprasidone hydrochloride], the solubility in water in series [1] is on record as 0.00718 mg/mL.
For `O=C1Cc2cc(CCN3CCN(c4nsc5ccccc45)CC3)c(Cl)cc2N1` [ziprasidone], the solubility in water in series [1] (25° C.) was 2.13 mg/mL (≈ 5.16 mM). In addition, the “pH value of ziprasidone in water” value in series [2] is approximately 3.2.
Regarding ziprasidone mesylate trihydrate, in series [1], the solubility in water is listed as 0.013 mg/mL.
